IC50 data for two compounds are collected here from PMC11477218 (International Journal of Molecular Sciences, 2024).

As usually defined, the IC50 is the midpoint of a concentration-inhibition curve.

Structures are written as SMILES. Where two headings read alike, the source gives them in different places.

The test has as its target T1, 20S proteasome β5 subunit (Homo sapiens, UniProt P28074).
T1 construct: gene PSMB5; human erythrocyte 20S proteasome (constitutive); with other subunits of the 20S proteasome
T1 sequence (P28074 60-263): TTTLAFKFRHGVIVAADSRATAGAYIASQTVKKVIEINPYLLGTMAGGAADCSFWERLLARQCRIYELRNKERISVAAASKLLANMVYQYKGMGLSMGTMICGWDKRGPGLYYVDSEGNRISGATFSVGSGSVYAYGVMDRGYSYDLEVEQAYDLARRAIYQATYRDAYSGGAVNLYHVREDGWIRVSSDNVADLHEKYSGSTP
In words: fluorogenic Suc-LLVY-AMC chymotrypsin-like activity assay. Format: biochemical.

On to `COc1cc2ccn(C/C=C/C(=O)NCCC(C)C)c(=O)c2cc1OC` [AM12], for which, where the note is “read-out: IC50”, the IC50 was found to be 12.2 ± 1.8 µM.
For `O=c1c(O)c(-c2ccc(O)c(O)c2)oc2cc(O)cc(O)c12` [quercetin], the IC50 amounted to 2.96 ± 0.77 µM.
